Patent US20240217990A1 (Gilead Sciences, Inc., priority 2021, published 2024)

Key:
TLR7 = molecular target: T1, TLR7 (Homo sapiens, UniProt Q9NYK1); assay: TLR7 human PBMC cell-based assay (antagonist, GS-986 stimulated cytokine release); details: human PBMCs; TLR7 agonist GS-986 400 nM, 6 hours; cytokines (IL-6 and IFNα) in supernatant; read-out: TLR-7 EC50
T1 construct: Human peripheral blood mononuclear cells (PBMCs) consist of lymphocytes, monocytes and dendritic cells that express TLR7, TLR8 and TLR9; endogenous in cells; host or cells: cryopreserved human PBMCs from healthy donors
T1 sequence (Q9NYK1 27-1049): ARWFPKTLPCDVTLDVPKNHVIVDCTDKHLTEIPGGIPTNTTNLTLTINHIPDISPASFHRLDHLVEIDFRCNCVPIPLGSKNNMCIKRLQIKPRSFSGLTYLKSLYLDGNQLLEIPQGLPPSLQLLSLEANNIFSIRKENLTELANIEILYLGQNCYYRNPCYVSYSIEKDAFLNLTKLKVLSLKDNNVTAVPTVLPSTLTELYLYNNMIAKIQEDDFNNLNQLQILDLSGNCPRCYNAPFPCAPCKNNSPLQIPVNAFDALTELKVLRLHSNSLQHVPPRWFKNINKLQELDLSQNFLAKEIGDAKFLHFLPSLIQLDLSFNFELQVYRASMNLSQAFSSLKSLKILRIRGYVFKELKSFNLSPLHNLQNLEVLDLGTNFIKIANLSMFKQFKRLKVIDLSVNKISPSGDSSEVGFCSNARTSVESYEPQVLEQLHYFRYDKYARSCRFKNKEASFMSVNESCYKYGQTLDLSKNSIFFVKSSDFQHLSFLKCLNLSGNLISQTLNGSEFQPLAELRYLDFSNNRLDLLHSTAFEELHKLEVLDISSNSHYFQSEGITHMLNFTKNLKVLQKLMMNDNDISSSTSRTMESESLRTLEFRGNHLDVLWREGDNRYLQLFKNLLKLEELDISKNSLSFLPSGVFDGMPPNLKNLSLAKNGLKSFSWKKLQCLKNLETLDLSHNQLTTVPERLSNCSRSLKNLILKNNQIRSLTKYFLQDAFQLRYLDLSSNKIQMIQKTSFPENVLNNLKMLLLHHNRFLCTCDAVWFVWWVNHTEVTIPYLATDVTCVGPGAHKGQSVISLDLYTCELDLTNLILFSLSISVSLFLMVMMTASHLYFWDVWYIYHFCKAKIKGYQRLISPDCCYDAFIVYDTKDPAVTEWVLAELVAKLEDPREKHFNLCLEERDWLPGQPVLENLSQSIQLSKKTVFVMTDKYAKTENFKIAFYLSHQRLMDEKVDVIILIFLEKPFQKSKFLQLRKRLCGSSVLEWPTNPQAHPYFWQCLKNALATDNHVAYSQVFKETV
Outline: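 EC50 derived by sigmoidal fitting of IL-6 and IFNα levels, quantified by electrochemiluminescence in supernatants of human PBMCs given 400 nM GS-986 for 6 h. Cells (100,000/well in RPMI-1640, 10% FBS) had received test antagonist 1 h beforehand, 10 doses in quadruplicate, at 37 °C.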

TLR8 = molecular target: T2, TLR8 (Homo sapiens, UniProt Q9NR97); assay: TLR8 human PBMC cell-based assay (antagonist, Compound A stimulated cytokine release); details: human PBMCs; TLR8 agonist Compound A 800 nM, 6 hours; cytokines (TNFa and IL 12p40) in supernatant; read-out: TLR-8 EC50
T2 construct: Human peripheral blood mononuclear cells (PBMCs) consist of lymphocytes, monocytes and dendritic cells that express TLR7, TLR8 and TLR9; endogenous in cells; host or cells: cryopreserved human PBMCs from healthy donors
T2 sequence (Q9NR97 27-1041): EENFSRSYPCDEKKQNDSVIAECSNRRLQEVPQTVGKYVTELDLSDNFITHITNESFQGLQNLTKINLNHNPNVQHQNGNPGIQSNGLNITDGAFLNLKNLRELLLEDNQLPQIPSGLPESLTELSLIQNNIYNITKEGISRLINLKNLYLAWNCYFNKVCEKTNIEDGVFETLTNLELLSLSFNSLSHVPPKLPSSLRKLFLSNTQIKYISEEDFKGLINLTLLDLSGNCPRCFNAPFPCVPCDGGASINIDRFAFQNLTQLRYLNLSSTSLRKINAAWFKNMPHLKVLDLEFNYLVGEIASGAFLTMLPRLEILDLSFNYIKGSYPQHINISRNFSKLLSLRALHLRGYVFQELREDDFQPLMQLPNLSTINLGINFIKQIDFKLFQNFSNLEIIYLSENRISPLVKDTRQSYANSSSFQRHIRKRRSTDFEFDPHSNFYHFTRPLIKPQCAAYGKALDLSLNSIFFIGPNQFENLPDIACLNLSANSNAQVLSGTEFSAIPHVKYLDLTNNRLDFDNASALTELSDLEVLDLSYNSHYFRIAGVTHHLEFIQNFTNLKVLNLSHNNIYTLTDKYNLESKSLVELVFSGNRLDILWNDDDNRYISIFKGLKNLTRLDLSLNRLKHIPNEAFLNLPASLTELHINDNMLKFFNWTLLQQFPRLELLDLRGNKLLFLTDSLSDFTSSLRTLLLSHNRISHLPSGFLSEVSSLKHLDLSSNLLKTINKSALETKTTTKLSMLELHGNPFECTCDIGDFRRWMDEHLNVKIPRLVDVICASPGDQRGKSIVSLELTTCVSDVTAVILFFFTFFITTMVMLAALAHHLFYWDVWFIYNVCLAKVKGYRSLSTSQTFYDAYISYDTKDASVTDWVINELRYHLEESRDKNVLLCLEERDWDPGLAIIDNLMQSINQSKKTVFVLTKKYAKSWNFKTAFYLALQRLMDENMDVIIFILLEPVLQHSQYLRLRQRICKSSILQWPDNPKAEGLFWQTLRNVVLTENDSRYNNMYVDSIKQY
Outline: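 Cryopreserved donor PBMCs (100,000/well, RPMI + 10% FBS) were preincubated 1 h with antagonist (10-point dose response, quadruplicate), then stimulated with Compound A (800 nM final) for 6 h at 37 °C. TNFa and IL-12p40 in supernatants were measured by electrochemiluminescence; sigmoidal fits gave EC50.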

SMILES | EC50 (TLR7) [nM] | EC50 (TLR8) [nM]
Cc1cc(-c2[nH]c3cc(-c4ccc(C5CCNCC5)cc4)sc3c2C(C)C)cn2ncnc12 [Example 221] | 0.8 | 3.3
Cc1c(-c2[nH]c3cc(-c4cnc5c(c4)CNCC5)sc3c2C(C)C)cn2ncnc2c1C [Example 222] | 3.1 | 0.7
Cc1cc(-c2[nH]c3cc(-c4ccc5c(c4)CCNC5)sc3c2C(C)C)cn2ncnc12 [Example 223] | 0.4 | 0.5
COc1cc(-c2[nH]c3cc(-c4cnc5c(c4)CNCC5)sc3c2C(C)C)cn2ncnc12 [Example 224] | 0.4 | 0.3
Cc1cc(-c2[nH]c3cc(-c4cccc5c4CCNC5)sc3c2C(C)C)cn2ncnc12 [Example 225] | 37.8 | 5.3
Cc1cc(-c2[nH]c3cc(-c4cnn(C5CCNC5)c4)sc3c2C(C)C)cn2ncnc12 (stereo not drawn) [Example 226] | 0.6 | 1.6
Cc1cc(-c2[nH]c3cc(-c4ccc5c(c4)CC(N)C5)sc3c2C(C)C)cn2ncnc12 (stereo not drawn) [Example 227] | 0.6 | 0.7
Cc1c(-c2[nH]c3cc(-c4ccc(N5CCNCC5)nc4)sc3c2C(C)C)cn2ncnc2c1C [Example 228] | 0.4 | 0.5
Cc1c(-c2[nH]c3cc(-c4cnn(C5CCNCC5)c4)sc3c2C(C)C)cn2ncnc2c1C [Example 229] | 1.1 | 1.3
Cc1c(-c2[nH]c3cc(-c4cn(C5CCNCC5)nn4)sc3c2C(C)C)cn2ncnc2c1C [Example 230] | 1.6 | 1.9
Cc1c(-c2[nH]c3cc(-c4ccc(N5CCNCC5)cc4)sc3c2C(C)C)cn2ncnc2c1C [Example 231] | 1.7 | 3.1
COc1cc(-c2[nH]c3cc(-c4cn(C5CCNCC5)nn4)sc3c2C(C)C)cn2ncnc12 [Example 232] | 0.7 | 1.3
COc1cc(-c2[nH]c3cc(-c4cnn(C5CCNCC5)c4)sc3c2C(C)C)cn2ncnc12 [Example 233] | 0.4 | 1.4
Cc1cc(-c2[nH]c3cc(-c4cccc(N5CCNCC5)c4)sc3c2C(C)C)cn2ncnc12 [Example 234] | 8.1 | 8.4
Cc1cc(-c2[nH]c3cc(-c4nc5ccccc5[nH]4)sc3c2C(C)C)cn2ncnc12 [Example 235, 2-(1H-benzo[d]imidazol-2-yl)-6-isopropyl-5-(8-methyl-[1,2,4]triazolo[1,5-a]pyridin-6-yl)-4H-thieno[3,2-b]pyrrole] | 110 | 114
Cc1cc(-c2[nH]c3cc(-c4nc5ccncc5[nH]4)sc3c2C(C)C)cn2ncnc12 [Example 236] | 18.6 | 14.2
Cc1cc(-c2[nH]c3cc(-c4nc5ccc(N6CCNCC6)cc5[nH]4)sc3c2C(C)C)cn2ncnc12 [Example 237] | 6.8 | 49.4

SMILES | EC50 (TLR7) [nM] | EC50 (TLR8) [nM]
Cc1cc(-c2[nH]c3cc(-c4nc5ccc(N6CCNCC6)cc5n4C)sc3c2C(C)C)cn2ncnc12 [Example 238] | 2.8 | 14.2
Cc1c(-c2[nH]c3cc(-c4nc5ccc(N6CCNCC6)cc5[nH]4)sc3c2C(C)C)cn2ncnc2c1C [Example 239] | 6.6 | 25.4
Cc1c(C(=O)N2CCNCC2)sc2c(C(C)C)c(-c3cc(C)c4ncnn4c3)[nH]c12 [Example 240, (6-isopropyl-3-methyl-5-(8-methyl-[1,2,4]triazolo[1,5-a]pyridin-6-yl)-4H-thieno[3,2-b]pyrrol-2-yl)(piperazin-1-yl)methanone] | 21 | 301
Cc1c(C(=O)N(C)C2CCNCC2)sc2c(C(C)C)c(-c3cc(C)c4ncnn4c3)[nH]c12 [Example 241] | 1.4 | 314
Cc1c(C(=O)N2CCC[C@H](N)[C@@H]2C)sc2c(C(C)C)c(-c3cc(C)c4ncnn4c3)[nH]c12 [Example 242] | 15.4 | 219
Cc1c(C(=O)N2CCC[C@@H]3NCC[C@@H]32)sc2c(C(C)C)c(-c3cc(C)c4ncnn4c3)[nH]c12 [Example 243] | 52.4 | 82.9
CCc1c(-c2cc(C)c3ncnn3c2)[nH]c2cc(-c3nc4ccc(N5CCNCC5)nc4[nH]3)sc12 [Example 244, 6-ethyl-5-(8-methyl-[1,2,4]triazolo[1,5-a]pyridin-6-yl)-2-(5-(piperazin-1-yl)-311-imidazo[4,5-b]pyridin-2-yl)-4H-thieno[3,2-b]pyrrole] | 333 | 33.1
CCc1c(-c2cc(C)c3ncnn3c2)[nH]c2cc(-c3nc4ccc(N5CCNCC5)cc4[nH]3)sc12 [Example 245] | 337 | 66.7
Cc1cc(-c2[nH]c3cc(C(=O)N(C)C4CCC(N5CC(F)(F)C5)CC4)sc3c2C(C)C)cn2ncnc12 (stereo not drawn) [Example 246, N-(4-(3,3-difluoroazetidin-1-yl)cyclohexyl)-6-isopropyl-N-methyl-5-(8-methyl-[1,2,4]triazolo[1,5-a]pyridin-6-yl)-4H-thieno[3,2-b]pyrrole-2-carboxamide] | 53.4 | 191
Cc1cc(-c2[nH]c3cc(C(=O)N(C)C4CCC(N5CC6CCC(C5)O6)CC4)sc3c2C(C)C)cn2ncnc12 (stereo not drawn) [Example 248] | 7.6 | 19.5
Cc1cc(-c2[nH]c3cc(C(=O)N(C)C4CCC(N5CCN(CC(F)F)CC5)CC4)sc3c2C(C)C)cn2ncnc12 (stereo not drawn) [Example 249] | 3 | 12
Cc1cc(-c2[nH]c3cc(C(=O)N(C)C4CCC(N5CC(F)C5)CC4)sc3c2C(C)C)cn2ncnc12 (stereo not drawn) [Example 250] | 6.6 | 11
Cc1cc(-c2[nH]c3cc(C(=O)N(C)C4CCC(N5CC(OC(F)(F)F)C5)CC4)sc3c2C(C)C)cn2ncnc12 (stereo not drawn) [Example 251] | 59.6 | 105
Cc1cc(-c2[nH]c3cc(C(=O)N(C)C4CCC(N5CC6(C5)CS(=O)(=O)C6)CC4)sc3c2C(C)C)cn2ncnc12 (stereo not drawn) [Example 252] | 9.6 | 11.2
Cc1cc(-c2[nH]c3cc(C(=O)N(C)C4CCC(N5CC6(COC6)C5)CC4)sc3c2C(C)C)cn2ncnc12 (stereo not drawn) [Example 253] | 7.5 | 8.5
Cc1cc(-c2[nH]c3cc(C(=O)N(C)C4CCC(N5CCC(F)(F)C5)CC4)sc3c2C(C)C)cn2ncnc12 (stereo not drawn) [Example 254] | 34.8 | 136
